# Measured values taken from PMC8647499, “Preclinical evaluation of strasseriolides A–D, potent antiplasmodial macrolides isolated from Strasseria geniculata CF-247,251” (Malaria Journal, 2021).
# “And” between values parts separate entries of the source, which are not always exact repeats. Equal entries are not always repeated.
# How the values were obtained:
# [1] = test system: transgenic P. berghei line 676m1cl1 (PbGFP-Luccon), ANKA strain; assay: In vivo efficacy in P. berghei infected mice (luciferase activity); set-up: species or system Plasmodium berghei in Swiss Webster female mice; conditions: for Parasitaemia (Luminescence arbitrary units), Average ± SD: 4 days from 48 h post-infection; for in vivo activity (in words): strasseriolide D 22 mg/kg i.p. (p < 0.01 vs. vehicle), strasseriolide C 50 mg/kg i.p. (not statistically significant); for parasitaemia level lower compared to controls treated with vehicle: strasseriolide D 22 mg/kg i.p., strasseriolide C 50 mg/kg i.p., 4 days
# Experimental: In vivo efficacy experiments were performed at the Anti-infectives Screening Core Services facility of the New York University School of Medicine. The transgenic P. berghei line 676m1cl1 parasite (PbGFP-Luccon) expressing the fusion GFP (mutant 3) and firefly luciferase (LucIAV) proteins generated in the reference clone of ANKA strain cl15cy1 was used. Swiss Webster female mice were infected with transgenic P. berghei line 676m1cl1 (PbGFP-Luccon) ANKA-infected 10³ red blood cells. Treatment was then started 48 h post-parasite infection by i.p. dosage of 22 mg/kg of strasseriolide D and 50 mg/kg of strasseriolide C. Vehicle only (PBS 2% methylcellulose, 0.5% Tween 80) and 20 mg/kg chloroquine were used as negative and positive controls. The infected mice were treated for four days, after which luciferase activity of the parasites was quantified 5 to 10 min after i.p. injection of 150 mg/kg D-Luciferin Potassium-salt (Goldbio) dissolved in PBS using an IVIS® Lumina II imager on the fifth day.
# The Genedata Screener online application (Genedata AG, Basel, Switzerland) was used to compute IC50 values. The Smart Fit strategy with Hill model was selected as the choice for curve fitting. Where applicable, data are presented as mean ± standard deviation (SD). In Fig. 3, the significant differences between the vehicle controls and test compounds were calculated by the Student’s t test.
# [2] = Solubility in the formulation vehicle; format: physicochemical; conditions: at 25 mg/Kg dosage, about 5.53 mM in 200 µL vehicle; preliminary unpublished data
SMILES,"Parasitaemia (Luminescence arbitrary units), Average ± SD ([1]; Table S7/Fig. 3A experiment: strasseriolide C 50 mg/kg i.p., chloroquine 20 mg/kg, read day 5, four replicates)",in vivo activity (in words) [1],parasitaemia level lower compared to controls treated with vehicle [1],"Parasitaemia (Luminescence arbitrary units), Average ± SD ([1]; Table S8/Fig. 3B experiment: strasseriolide D 22 mg/kg i.p., chloroquine 20 mg/kg, read day 5, five replicates)","Parasitaemia (Luminescence arbitrary units), single replicates ([1]; Table S8 experiment: strasseriolide D 22 mg/kg i.p., chloroquine 20 mg/kg, individual mice)",soluble in the formulation vehicle [2]
"C/C1=C\[C@H](C)C(=O)C[C@@H](O)/C(C)=C/[C@H](C)C[C@@H](C)CC[C@@H]([C@@H](C)C(=O)O)OC(=O)[C@@H](C)C1 [Strasseriolide C, strasseriolide C]",3.66 × 10^6 ± 2.23 × 10^6 Luminescence arbitrary units,moderate in vivo activity,30%,–,–,–
"C/C1=C\[C@H](C)[C@@H](O)C[C@@H](O)/C(C)=C/[C@H](C)C[C@@H](C)CC[C@@H]([C@@H](C)C(=O)O)OC(=O)[C@@H](C)C1 [Strasseriolide D, strasseriolide D]",–,significantly lowered parasitaemia in vivo,70%,1.25 × 10^5 ± 1.04 × 10^5 Luminescence arbitrary units,2.56 × 10^4 Luminescence arbitrary units and 6.93 × 10^3 Luminescence arbitrary units,35%
